Values joined by “and” are separate entries in the source; they are usually repeats but may differ in a detail not shown here. Equal values may be shown once. Blank lines part the entries; values can stand above or below the molecule they belong to.
Tested on: 922993-354-T-J3-PDC complex spheroids, viability
Experiment: Anticancer human tumor 922993-354-T-J3-PDC patient-derived endometrial carcinoma cell line growth inhibition [GQUAD]
Details: for viability, T/C: stronger effect = lower value
From the text: DNA G-quadruplex Stabilizer Agents in Combinations in Complex Spheroids
A high-throughput screen of multi-cell type tumor spheroids was designed to identify active combinations of DNA G-quadruplex stabilizer agents and targeted small molecules. Complex spheroids include a stromal component modeled by human endothelial cells (HUVEC) and fibroblasts modeled by human mesenchymal stem cells (MSCs). The concentration ranges selected for each drug and investigational agent were based upon clinically achievable concentrations if the clinical Cmax of the agent was known.
Compounds. The drugs and investigational agents: pidnarulex (CX-5461; NSC782164), APTO-253 (NSC789042), BRACO-19 (NSC847499), peposertib (NSC802822), ceralasertib (NSC780249), elimusertib (NSC800525), camonsertib (NSC841442), AZD-1390 (NSC803789), olaparib (NSC753686), talazoparib (NSC767125), ART-558 (NSC835418), sotorasib (NSC818433), MRTX-1133 (NSC836407), SN-38 (NSC673596), topotecan (NSC609699), etoposide (NSC141540), doxorubicin (NSC123127), gemcitabine (NSC613327), 5-fluorouracil (NSC19893), paclitaxel (NSC125973), vemurafenib (NSC761431), panobinostat (NSC761190), R-306465 (JNJ-16241199; NSC773264), adavosertib (NSC754352), TP-3654 (NSC805149), carboplatin (NSC241240), KSQ-4279 (NSC840948), and staurosporine (NSC755774) were obtained from the National Cancer Institute (NCI) Developmental Therapeutics Program Chemical Repository (34). The FDA-approved anticancer drug set is available from the NCI Developmental Therapeutics Program. […] The stock solutions were prepared in dimethyl sulfoxide (DMSO, Sigma-Aldrich, St. Louis, MO, cat. D2650) at 800-fold the tested concentration and stored at -70 degrees C prior to their use. All drugs and investigational agents were tested over a range starting from a high concentration at or near the clinical Cmax and decreasing in half-log increments. If the clinical Cmax for an agent had not been determined, the highest concentration tested was 10 microM.
2.3 Cell Culture. All cells were maintained in an incubator at 37 degrees C and 5% CO2 with 95% humidity. The PDC lines were cultured according to standard operating procedures established by the NCI PDMR. All PDCs were thawed and cultured in Matrigel-coated flasks prepared with a working solution of 1X Ham's F-12 nutrient mix, without supplementation (Invitrogen, cat. 11765054), 100 U/mL penicillin-streptomycin (Invitrogen, cat. 15140122), and 2.5% Matrigel (Corning Inc., cat. 354248) for the first three passages. The 857933-349-R-J2-PDC line was cultured in 6C/Colon 1B media, which includes advanced DMEM/F-12 (Thermo Fisher Scientific, cat. 12634028), 10 mM HEPES (Thermo Fisher Scientific, cat. 15630080), 1X GlutaMAX supplement (Thermo Fisher Scientific, cat. 35050061), 0.1 mg/mL primocin (InvivoGen, cat. ant-pm-2), 10% defined fetal bovine serum, heat inactivated (HyClone Laboratories Inc., cat. SH30070.03HI), 50% L-WRN conditioned media (ATCC, cat. CRL-3276), 1.25 mM N-Acetyl-L-cysteine (Sigma-Aldrich, cat. A9165), 10 mM nicotinamide (Sigma-Aldrich, cat. N0636), 1X B-27 supplement (Thermo Fisher Scientific, cat. 17504044), 1X N-2 supplement (Thermo Fisher Scientific, cat. 17502048), 10 microM Y-27632 dihydrochloride (Tocris Bioscience, cat. 1254), and 50 ng/mL human EGF recombinant protein (Thermo Fisher Scientific, cat. PHG0311). The 485176-168-R4-J1-PDC line was cultured in Panc media, which includes all 6C/Colon 1B media components plus 100 ng/mL human FGF-10 (Thermo Fisher Scientific, cat. 100-26), 500 nM SB-431542 (Selleckchem, cat. S1067), and gastrin (Tocris, cat. 3006).
[…]
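Also: spheroids exposed to compounds for seven days.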
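For viability, T/C in this document: 100% = DMSO vehicle control viability.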

IC50 (curve of compound): > 10000 nM and 6750 nM
SMILES: COc1cc(C2c3cc4c(cc3C(OC3OC5COC(C)OC5C(O)C3O)C3COC(=O)C23)OCO4)cc(OC)c1O (stereo not drawn)
viability, T/C (compound 0.0316 µM): 88.4% and 94.8% and 88.6% | viability, T/C (compound 0.1 µM): 89% and 80.4% and 92% | viability, T/C (compound 0.316 µM): 76.1% and 86.3% and 92.8% | viability, T/C (compound 1 µM): 89.5% and 99.4% and 80.7% | viability, T/C (compound 3.16 µM): 74.5% and 95.4% and 76.1% | viability, T/C (compound 10 µM): 56.4% and 62.6% and 37%

IC50 (curve of compound): 514 nM and 326 nM and 460 nM
SMILES: CC1COCCN1c1cc(C2(O)CC3CCC(C2)O3)c2cnn(-c3ccn[nH]3)c2n1 (stereo not drawn)
viability, T/C (compound 0.0316 µM): 93.2% and 97.1% and 107% | viability, T/C (compound 0.1 µM): 80.6% and 62.3% and 68.6% | viability, T/C (compound 0.316 µM): 54.2% and 56.9% and 63.5% | viability, T/C (compound 1 µM): 41.3% and 36% and 37.9% | viability, T/C (compound 3.16 µM): 26.8% and 19.8% and 23.5% | viability, T/C (compound 10 µM): 18.6% and 15.3% and 15.6%

IC50 (curve of first compound, second compound 0.0316 µM): > 316 nM | IC50 (curve of first compound, second compound 0.1 µM): 125 nM | IC50 (curve of first compound, second compound 0.316 µM): 3.91 nM | IC50 (curve of first compound, second compound 1 µM): 81.8 nM | IC50 (curve of first compound, second compound 3.16 µM): 53 nM | IC50 (curve of first compound, second compound 10 µM): < 0.999 nM
SMILES: CC[C@@]1(O)C(=O)OCc2c1cc1n(c2=O)Cc2cc3c(CN(C)C)c(O)ccc3nc2-1 + Cc1cnc(CNC(=O)c2c(=O)c3ccc(N4CCCN(C)CC4)nc3n3c2sc2ccccc23)cn1
viability, T/C (second compound 0.0316 µM, first compound 0.000999 µM): 94.7% | viability, T/C (second compound 0.0316 µM, first compound 0.00316 µM): 86.6% | viability, T/C (second compound 0.0316 µM, first compound 0.00999 µM): 84% | viability, T/C (second compound 0.0316 µM, first compound 0.0316 µM): 86.9% | viability, T/C (second compound 0.0316 µM, first compound 0.0999 µM): 83.2% | viability, T/C (second compound 0.0316 µM, first compound 0.316 µM): 54.6% | viability, T/C (second compound 0.1 µM, first compound 0.000999 µM): 60.6% | viability, T/C (second compound 0.1 µM, first compound 0.00316 µM): 74.2% | viability, T/C (second compound 0.1 µM, first compound 0.00999 µM): 55.1% | viability, T/C (second compound 0.1 µM, first compound 0.0316 µM): 61% | viability, T/C (second compound 0.1 µM, first compound 0.0999 µM): 50.4% | viability, T/C (second compound 0.1 µM, first compound 0.316 µM): 42.7% | viability, T/C (second compound 0.316 µM, first compound 0.000999 µM): 58.6% | viability, T/C (second compound 0.316 µM, first compound 0.00316 µM): 53.5% | viability, T/C (second compound 0.316 µM, first compound 0.00999 µM): 46.7% | viability, T/C (second compound 0.316 µM, first compound 0.0316 µM): 37.5% | viability, T/C (second compound 0.316 µM, first compound 0.0999 µM): 41.1% | viability, T/C (second compound 0.316 µM, first compound 0.316 µM): 40.3% | viability, T/C (second compound 1 µM, first compound 0.000999 µM): 42.2% | viability, T/C (second compound 1 µM, first compound 0.00316 µM): 58.5% | viability, T/C (second compound 1 µM, first compound 0.00999 µM): 39.6% | viability, T/C (second compound 1 µM, first compound 0.0316 µM): 62.3% | viability, T/C (second compound 1 µM, first compound 0.0999 µM): 49.1% | viability, T/C (second compound 1 µM, first compound 0.316 µM): 36.2% | viability, T/C (second compound 3.16 µM, first compound 0.000999 µM): 52.1% | viability, T/C (second compound 3.16 µM, first compound 0.00316 µM): 54.9% | viability, T/C (second compound 3.16 µM, first compound 0.00999 µM): 63.4% | viability, T/C (second compound 3.16 µM, first compound 0.0316 µM): 42.5% | viability, T/C (second compound 3.16 µM, first compound 0.0999 µM): 49.2% | viability, T/C (second compound 3.16 µM, first compound 0.316 µM): 45.3% | viability, T/C (second compound 10 µM, first compound 0.000999 µM): 45.5% | viability, T/C (second compound 10 µM, first compound 0.00316 µM): 36.3% | viability, T/C (second compound 10 µM, first compound 0.00999 µM): 43.3% | viability, T/C (second compound 10 µM, first compound 0.0316 µM): 44.1% | viability, T/C (second compound 10 µM, first compound 0.0999 µM): 46.2% | viability, T/C (second compound 10 µM, first compound 0.316 µM): 47.5%

IC50 (curve of compound): > 10000 nM
SMILES: C=CC(=O)N1CCN(c2nc(=O)n(-c3c(C)ccnc3C(C)C)c3nc(-c4c(O)cccc4F)c(F)cc23)C(C)C1 (stereo not drawn)
viability, T/C (compound 0.0316 µM): 101% and 110% and 99.2% | viability, T/C (compound 0.1 µM): 88.4% and 88.3% and 112% | viability, T/C (compound 0.316 µM): 102% and 124% and 99.9% | viability, T/C (compound 1 µM): 91.4% and 97.3% and 95.3% | viability, T/C (compound 3.16 µM): 93.3% and 95.4% and 128% | viability, T/C (compound 10 µM): 97.9% and 97.8% and 89.3%
